The assay has as its system P. falciparum 3D7 growth, pLDH absorbance. Briefly: P. falciparum 3D7 growth inhibition, dose response, strain 3D7 (AID 2305).

We go through 85 compounds from PubChem BioAssay AID2305 (GlaxoSmithKline (GSK), 2010).

As for `CCC(Cc1cnc2nc(N)nc(N)c2n1)c1ccc(C(=O)O)cc1` (stereo not given), the IC50 (commonly the concentration that gives 50% inhibition) turned out to be 250 nM.

`CN(c1ccc2c(c1)nc(NCc1ccc(F)cc1)n2C)c1ccnc(Nc2ccc(CS(C)(=O)=O)cc2)n1` displayed a half-inhibitory concentration (IC50) of 830 nM. `Cc1ccc2[nH]c3c(NCCCN(C)C)ncnc3c2c1` gave an IC50 of 650 nM.

As for `CC[C@H]1CN2CC[C@H]1C[C@H]2[C@H](O)c1cc(-c2ccccc2C)nc2ccc(OC)cc12`, the IC50 came out at 200 nM. With `O=C(/C=C/c1ccc(Cl)c(Cl)c1)N1CCC(CN2CCC(c3c[nH]c4cnccc34)CC2)CC1`, the concentration for half-maximal inhibition (IC50) amounted to 220 nM. The same measure for `Cc1cc2c(cc1C(F)(F)F)N(C(=O)Nc1ccc(C(=O)NC3CCN(Cc4ccccc4)C3)cc1)CC2` (stereo not given): 780 nM. The same measure for `CC(C)(C)C1CC(=O)C[C@@H]2C(=O)N(c3ccc(Br)cc3)C(=O)[C@H]12` (stereo not given in full): 930 nM; for `O=C(N[C@@H](Cc1ccccc1)[C@H](O)CNCCC(F)(F)F)c1cccc(OCC2CC2)c1`: 620 nM; for `CCCCCCNc1cc(C)nc2ccc(OC)cc12`: 550 nM. The same measure for `COCC(=O)N(Cc1ccccc1-c1cccc(CNCCc2ccccc2)c1)C1CCN(Cc2ccccc2)CC1`: 1100 nM; for `CC(C)CC(=O)N1CCNC[C@@H]1C(=O)NC1CC1`: 1090 nM. `COc1ccc(-c2ccc(NC(=O)c3cccc(Cl)c3)cc2)cc1CN1CCCN(C)CC1` registered an IC50 of 600 nM. The same measure for `COc1ccc(NC(=O)NC2CCN(CCCOc3cc(C)nc4ccccc34)CC2)cc1OC`: 1280 nM; for `O=C(NC1CCN(CCCOc2ccnc3cc(Cl)ccc23)C1)c1ccc(Br)cc1` (stereo not given): 1020 nM; for `O=C(/C=C/c1ccc(Cl)c(Cl)c1)NCCCCCN1CCC(NC(=O)Nc2ccc(Cl)c(Cl)c2)CC1`: 890 nM. The same measure for `CC[C@H]1CN2CC[C@H]1C[C@H]2[C@H](O)c1cc(Cl)nc2ccc(OC)cc12`: 580 nM. `CC(C)C(C(=O)Nc1ccc(S(=O)(=O)N(C)C)cc1)c1ccc(Cl)cc1` (stereo not given) displayed an IC50 of 940 nM.

Turning to `CCn1c(-c2nonc2N)nc2c(-c3cccc(Cl)c3)ncc(OCCCNCCc3cnc[nH]3)c21`, the IC50 is 980 nM.

For the compound `O=C(NC1CCN(Cc2cccc(C(F)(F)F)c2)CC1)c1ccc(-c2cccc(C(F)(F)F)c2)s1`, the IC50 worked out at 1010 nM. The same measure for `Ic1cc(Nc2ncnc3ccsc23)ccc1OCc1ccccc1`: 770 nM; for `CN(C)CCOc1ccc(N2CCN(CCCCNC(=O)c3ccc(/C=C/c4cc(Cl)cc(Cl)c4)cc3)CC2)cc1`: 1000 nM. The same measure for `COc1ccccc1C1CCN(C2CCC(NC(=O)/C=C/c3cc(F)cc(C(F)(F)F)c3)CC2)CC1` (stereo not given): 900 nM; for `CC(C)CCN(Cc1cncn1Cc1cccc(C(F)(F)F)c1)C(=O)c1cncc(-c2ccccc2)c1`: 770 nM; for `COc1ccc2nc(-c3cc(-c4ccc(NC(C)=O)cc4)cnc3N)[nH]c2c1`: 1240 nM.

The compound `COc1ccc(C(=O)NC(c2ccc(Cl)cc2Cl)c2cc(Cl)c3cccnc3c2O)cc1` (stereo not given) registered an IC50 of 500 nM. The same measure for `CC(=O)Nc1ccc(C(=O)N2CCN(c3ccnc4cc(Cl)ccc34)CC2)cc1`: 910 nM. Compound `Nc1ncnc2cc(-c3cccc(NC(=O)Nc4ccccc4)c3)sc12` gave an IC50 of 710 nM. The same measure for `N#Cc1ccc(N2CCN(C(=O)c3cccc(-c4noc(C(F)(F)F)n4)c3)CC2)nc1`: 220 nM; for `Cc1cc2nc(-c3cccc(C(=O)NC4CCN(Cc5ccccc5)CC4)c3)[nH]c2cc1C`: 830 nM. The same measure for `O=C(NC1CCCCC1)c1csc(C2CCCN(C(=O)c3ccc(O)c(-c4cccc(C(F)(F)F)c4)c3)C2)n1` (stereo not given): 1670 nM. The same measure for `Clc1ccccc1CCNCC1CCN(CC2CCCCC2)CC1`: 690 nM; for `CC(c1cccc(S(=O)(=O)NCc2cccc(C(F)(F)F)c2)c1)N1CCC(N2CCCCC2)CC1` (stereo not given): 690 nM; for `CCc1c(CCNCCCCCCNCc2ccc3c(c2CC)OCO3)ccc(OC)c1OC`: 250 nM. With `Cc1c(C)n(Cc2ccccc2)c2ncnc(OC3CCN(CC(=O)NCC4CC4)CC3)c12`, the IC50 is 1120 nM. The same measure for `CC(Cc1ccc(NC(=O)c2ccc(CC(C)NCc3ccc(Cl)cc3)cc2)cc1)NCCc1cccc(Cl)c1` (stereo not given): 450 nM; for `COc1ccc(CN(C2CC2)C(C)C(=O)c2[nH]c(C)c(C(C)=O)c2C)cc1` (stereo not given): 1590 nM; for `O=C(Nc1cccc(CN2CCN(Cc3cccc(O)c3)CC2)c1)c1cc2ccccc2s1`: 1120 nM. The same measure for `CCCCCCC(C)(C)c1cc(O)c2c3c(c(=O)oc2c1)CCN(Cc1ccccc1)C3`: 220 nM; for `NC(N)=NC(=O)Nc1cc(Cl)c(Cl)c(Cl)c1`: 590 nM.

As to `CC(C)(C)C(Cn1ccnc1)NCc1cn[nH]c1-c1ccc(-c2ccccc2)cc1` (stereo not given), the IC50 came to 1060 nM.

On to `Cc1cc(C(=O)NC2CCN(Cc3ccccc3)CC2)ccc1-c1nc2cc(Cl)c(Cl)cc2[nH]1`, for which the IC50 is 960 nM. The same measure for `O=C(/C=C/c1ccc(Cl)c(Cl)c1)NC1CCC(CN2CCC(c3nc4ncccc4[nH]3)CC2)CC1` (stereo not given): 1230 nM. The same measure for `OC(CN1CCN(C2CCCCC2)CC1)Cn1c2ccccc2c2cc(Br)ccc21` (stereo not given): 860 nM; for `COc1ccc2nc3cc(Cl)ccc3c(Nc3ccc(O)c(CNC(C)C)c3)c2c1`: 140 nM; for `Cn1cc(C(=O)Nc2cccc(-c3cccc(-c4nc5ccccc5[nH]4)c3)c2)n(C)c1=O`: 710 nM.

The compound `COc1ccc2nc(C)cc(Nc3ccc(Oc4ccc(Cl)cc4)c(Cl)c3)c2c1` came in with an IC50 of 190 nM.

The compound `O=C(Nc1cccc(CN2CCCN(Cc3cccc(Cl)c3)CC2)c1)c1ccc(Br)cc1` came in with a half-inhibitory concentration (IC50) of 940 nM.

On to `CC(C)Cn1cc(C2CCN(CCN3CCC(CNC(=O)c4ccc(NC(=O)c5cc(Cl)cc(Cl)c5)cc4)CC3)CC2)c2ccccc21`, for which the IC50 worked out at 690 nM. The same measure for `CCNc1cc(C(=O)N[C@@H](Cc2ccccc2)[C@H](O)CNC2CCC(F)(F)CC2)c(F)c(N2CCCCS2(=O)=O)c1`: 210 nM; for `c1ccc(CNCc2cccc(-c3ccc(-c4nc5ccccc5[nH]4)s3)c2)cc1`: 820 nM.

Compound `CCCCCCCc1c(C)[nH]c2cccc(OC)c2c1=O` yielded an IC50 of 1130 nM. The same measure for `Cc1ccc(-c2csc(C)n2)c(C)c1`: 990 nM; for `COc1ccc2nccc([C@@H](O)CN3CCC(NC(=O)/C=C/c4cccc(C)c4)CC3)c2c1`: 1250 nM; for `Cc1cc(N(C)C2CCN(CC3CCCCC3)C2)nc(Nc2ccc(Cl)cc2)n1` (stereo not given): 680 nM. The same measure for `Cc1cc(N[C@@H](Cc2ccccc2)C(=O)Nc2ccccc2)nc(NCCc2cccnc2)n1`: 1340 nM; for `O=C(Nc1cccc(-c2nn3ccccc3c2-c2ccnc(Nc3ccc(Cc4ccncc4)cc3)n2)c1)c1c(F)cccc1F`: 300 nM; for `CC(=O)Nc1ccc(Nc2ncc([N+](=O)[O-])c(Nc3ccccc3C(N)=O)n2)cc1`: 370 nM. The same measure for `CC(C)c1ccc(CN2CCC(CNC(=O)c3cc(-c4ccccc4F)cs3)C2)cc1` (stereo not given): 990 nM; for `CCCCCC(C)C(C)c1cc(O)c2c(c1)OC(C)(C)CC2=Cc1ccncc1` (stereo not given): 210 nM; for `COc1ccc(OC)c(-c2cccc(-c3cccc(NC(=O)c4ccc([N+](=O)[O-])o4)c3)n2)c1`: 370 nM. Compound `FC(F)(F)COc1ccc(CNCCCCCCNCc2ccc(OCC(F)(F)F)c3ccccc23)c2ccccc12` registered an IC50 of 400 nM. On to `CN1CCCC(COc2cc3c(cc2Br)CCN3C(=O)Nc2ccc(-c3ccncc3)c(Cl)c2)C1` (stereo not given), for which the IC50 was found to be 230 nM. The same measure for `O=C(Nc1ccc(-c2cccc(-c3nc4ccc(C(F)(F)F)cc4[nH]3)c2)cc1)c1cccnc1`: 720 nM. The same measure for `O=C(NCc1cccc2ccccc12)c1ccc(CNC2CCN(Cc3ccccc3)CC2)cc1`: 840 nM; for `CC(C)COc1ccc(Cl)cc1Cc1ccc(-c2nc3c(F)c(F)ccc3[nH]2)o1`: 940 nM; for `COC(=O)c1cccc(CNCc2cccc(-c3ccc(-c4nc5c(C)cccc5[nH]4)s3)c2)c1`: 210 nM. The same measure for `CC(CN1CCN(C)CC1)C(=O)Nc1ccc(-c2cccc(-c3nc4ccccc4[nH]3)c2)cc1` (stereo not given): 570 nM; for `CN1CCC(Oc2ccc(CN3CC[C@H](NC(=O)c4ccc(F)c(F)c4)C3)c3ccccc23)C1` (stereo not given in full): 1080 nM. In the case of `CCOc1ccccc1C(=O)Nc1cccc(-c2nc3ncccn3c2C)c1`, the IC50 was determined as 850 nM. `COCCNCc1cccc(-c2ccc3c(Nc4ccc(F)cc4Cl)ccnc3c2)c1`: the IC50 stood at 680 nM. The same measure for `COc1cccc2c1CCN(CCN1CCC(NC(=O)c3ccc(-c4cccc(Cl)c4Cl)cc3)CC1)C2`: 700 nM; for `O=C(/C=C/c1c(Cl)cccc1Cl)NC1CCC(CN2CCC(c3c[nH]c4ccncc34)CC2)CC1` (stereo not given): 160 nM. The same measure for `CCN(CC)CCN(Cc1ccc(-c2ccc(C(F)(F)F)cc2)cc1)C(=O)Cn1c(CCc2cccc(F)c2F)nc(=O)c2cc(F)c(F)cc21`: 830 nM; for `CCN(CC)CCNc1nc(C=Cc2ccc(Cl)cc2)nc2cc3ccccc3cc12`: 150 nM; for `CN(C)Cc1cccc(-c2ccc3ccnc(N)c3c2)c1`: 120 nM. The same measure for `Cc1nc2nc(N)nc(N)c2c(C)c1Cc1c(Cl)cccc1Cl`: 50 nM. Consider `COc1ccc2nccc([C@@H](O)CN3CCC(NC(=O)[C@@H]4Cc5ccccc5CN4C(=O)OC(C)(C)C)CC3)c2c1`, for which the IC50 was 890 nM.

Turning to `CC(C)CCNCc1c(O)ccc2ccccc12`, the IC50 was found to be 1670 nM. For `CN(C)S(=O)(=O)c1ccc(N2CCN(CCC3(c4cccc(F)c4)CCN(C(=O)C(C)(C)C)CC3)CC2)c2nonc12`, the IC50 is 700 nM. The same measure for `CC[C@H](NC(=O)c1ccc(NC(=O)OC(C)(C)C)cc1)C(=O)N[C@@H](CO)C(=O)NCCCCc1ccccc1`: 830 nM; for `N#Cc1ccccc1S(=O)(=O)N1CCCC(CNC(=O)[C@H](CC2CCCCC2)NC(=O)c2cc3ccccc3s2)C1` (stereo not given in full): 510 nM. The same measure for `Nc1ccc(-c2nc3ccc(Oc4ccc5nc(-c6ccc(N)cc6)[nH]c5c4)cc3[nH]2)cc1`: 720 nM; for `CC(=O)N1CCC(C(=O)Nc2ccc(-c3cccc(-c4nc5c(C)cccc5[nH]4)c3)cc2)CC1`: 310 nM; for `O=C(Nc1ccc(N2CCCCC2)c(Cl)c1)c1ncn[nH]1`: 450 nM. Regarding `CC(=O)Nc1ccc(OCCN(CC(C)C)c2ccc(C(F)(F)F)c(C#N)c2)c(Cl)c1`, the IC50 was determined as 310 nM.
